Test results from US5563176A (priority 1994, dated 1996).

Legend:
[1] = tested on: 8402, T-cell; assay: inhibition of thymidine incorporation after two hour exposure, 8402; type: cell-based; details: 2 h, Table 1, 8402, two hour exposure
Procedure: (§1) To assess cytotoxic effects, various concentrations of illudins were added to cultures of cells for 48 hours, then cell growth/viability was determined by trypan blue exclusion. As an alternative to 48 hour continuous exposure studies, cells were plated in liquid culture in 96 well plates, exposed to various concentrations of illudins for 2 hours, pulsed with [^3 H]-thymidine for one to two hours and harvested onto glass filters. The filter papers were added to vials containing scintillation fluid and residual radioactivity determined in a beta (scintillation) counter.
(§2) two hour exposure to the toxins (N - 3).

[2] = tested on: SL-2, murine (thymic); assay: inhibition of thymidine incorporation after two hour exposure, SL-2; type: cell-based; details: Mus musculus, 2 h; Table 1; SL-2, two hour exposure
Procedure: as §1, §2

[3] = tested on: L1210 parent cells; assay: sensitivity of mdr lines, L1210 parent; type: cell-based; details: Mus musculus
[4] = kinetics of the reaction with dilute HCl; type: physicochemical; details: dehydroilludin M
From the text: Consistent with the above hypothesis are the results of the kinetics of the reaction of illudin M and dehydroilludin M with dilute HCl. […] In the reaction with dehydroilludin M, no intermediate could be detected by NMR spectroscopy. Presumably it formed too slowly and is too short-lived to be detected.

[5] = tested on: Molt-4 (human T-cell leukemia) xenograft; assay: Molt-4 xenograft in athymic Balb/c nu/nu mice; type: in vivo; details: 30 μg/kg, nude mice; FIG. 5
[6] = tested on: L1210 cells; assay: L1210 in vivo, increased life span
Procedure: In collaboration, the in vivo effects of dehydroilludin M was again studied. Initially the compound was studied against L1210 cells. […] The dehydroilludin M was then administered as a 24 hour infusion (5.0 mg/kg); the ILS was 11%. After we became aware of the presence of the energy-dependent uptake in human myelocytic cells, dehydroilludin M was screened for in vivo efficacy against a syngeneic mouse AML model using C1498 cells and a single bolus of […], 2.5 mg/kg IP, produced an ILS of 35%.

## CC1=C2C(=O)C(C)(C)C=C2C(=O)[C@](C)(O)C12CC2 [Dehydroilludin M]
[1]
  IC50: > 38 µM
[2]
  IC50: 5.24 µM
[3]
  IC50: 0.062 ± 0.008 µM
[4]
  half-life: 46.1 h
  k, first-order reaction: 2×10^-4 min^1
[5]
  complete regression of tumors: three of five tumors underwent complete regression
[6]; 2.5 mg/kg IP daily for 5 days
  ILS: 9%
[6]; 24 hour infusion (5.0 mg/kg)
  ILS: 11%
